# Like-named read-outs stand apart in the source and are kept apart here.
# Key:
# RAW264.7 cells = experiment: MTT cytotoxicity assay in RAW264.7 cells; format: cell-based, murine; details: RAW264.7 cells, 1, 10 and 50 μM, 24 hours (FIG. 7A)
# Experimental: (§1) RAW264.7 cells, which are murine macrophages (ATCC, Manassas, VA, USA), were incubated in low-glucose DMEM (Thermo Fisher Scientific Inc.) supplemented with 10% FBS, 100 IU/ml of penicillin and 100 μg/ml of streptomycin in an incubator. Imiquimod (IMQ; TLR7 agonist) and CpG-ODN (ODN 2395; TLR9 agonist) were obtained from InvivoGen (San Diego, CA, USA), and hydroxychloroquine (HCQ; endosomal TLRs inhibitor) was obtained from Sigma Aldrich Co. (St. Louis, MO, USA).
# (§2) RAW264.7 cells were incubated along with 1, 10 or 50 μM of a compound. After 24 hours, MTT (3-(4,5-dimethylthiazol-2-yl)-2,5-diphenyltetrazolium bromide) assay and enzyme-linked immunosorbent assay (ELISA) were sequentially performed.
# TLR7 = target: T1, TLR7 (Mus musculus, UniProt P58681); experiment: Inhibition of IMQ (TLR7 agonist)-induced TNF-α secretion in RAW264.7 cells, ELISA; format: cell-based, murine; details: for inhibition of secretion of TLR7-induced TNF-α: in the presence of IMQ, 1, 10 or 50 μM, ELISA (FIG. 7B and 7C)
# T1 construct: host or cells: RAW264.7 murine macrophages
# T1 sequence (P58681 27-1050): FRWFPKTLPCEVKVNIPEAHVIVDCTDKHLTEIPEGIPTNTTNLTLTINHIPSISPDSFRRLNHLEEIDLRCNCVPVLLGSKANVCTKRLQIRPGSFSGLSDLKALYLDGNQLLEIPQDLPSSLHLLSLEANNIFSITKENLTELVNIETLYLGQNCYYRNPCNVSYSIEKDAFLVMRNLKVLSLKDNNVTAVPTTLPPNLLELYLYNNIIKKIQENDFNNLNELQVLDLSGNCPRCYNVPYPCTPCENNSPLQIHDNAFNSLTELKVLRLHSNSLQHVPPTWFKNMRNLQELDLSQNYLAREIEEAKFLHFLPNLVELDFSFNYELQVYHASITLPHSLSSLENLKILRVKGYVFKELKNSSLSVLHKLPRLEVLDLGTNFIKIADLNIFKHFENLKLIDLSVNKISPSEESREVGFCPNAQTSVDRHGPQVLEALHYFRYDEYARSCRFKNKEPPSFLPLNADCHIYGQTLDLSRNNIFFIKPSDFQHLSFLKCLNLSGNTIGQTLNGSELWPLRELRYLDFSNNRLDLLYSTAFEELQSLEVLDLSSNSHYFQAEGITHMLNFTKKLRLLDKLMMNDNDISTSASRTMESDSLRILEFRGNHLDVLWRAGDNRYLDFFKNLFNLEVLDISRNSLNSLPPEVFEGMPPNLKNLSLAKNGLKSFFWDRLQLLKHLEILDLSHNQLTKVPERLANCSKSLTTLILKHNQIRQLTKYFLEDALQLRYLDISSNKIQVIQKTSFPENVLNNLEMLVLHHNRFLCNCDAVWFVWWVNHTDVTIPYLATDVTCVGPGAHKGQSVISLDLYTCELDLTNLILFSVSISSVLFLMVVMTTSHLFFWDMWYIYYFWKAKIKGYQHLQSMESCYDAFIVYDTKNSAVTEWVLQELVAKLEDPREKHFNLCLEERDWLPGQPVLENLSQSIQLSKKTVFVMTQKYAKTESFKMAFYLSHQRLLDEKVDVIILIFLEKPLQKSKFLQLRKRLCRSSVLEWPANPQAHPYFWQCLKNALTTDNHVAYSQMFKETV
# Experimental: as §1, §2
# (§3) ODN 2395 was used as a ligand to activate TLR9 and IMQ was used to induce TLR7 activity. The inhibitory effects of TAC5-050 and TAC5-051 against TLR9 or TLR7 were determined. HCQ, which is known to inhibit endosomal TLRs, was used as a control group. Since the median inhibitory concentration was expected to range from 50 and 20 μM, the concentration range was set to decrease by half from the high concentration (50 μM) to the low concentration ([…]).
# (§4) RAW264.7 cells (2×10^4 cells/well) were treated with small molecule compounds and HCQ for 1 hour (0.25% DMSO), incubated and then treated with ODN 2395 (0.5 μM) or IMQ (1 μg/ml) for 4 hours. Then, the ELISA for detecting mTNF-α was performed in accordance with the following protocol: • 1. Transfer samples from 96 well cell culture plate to elisa coated plate) and incubate for 2 h • 2. Treat detection antibody and incubate for 1 h • 3. Treat HRP and incubate for 30 min • 4. Treat TMB and read the samples by using micro-plate reader machine
# TLR9 = target: T2, TLR9 (Mus musculus, UniProt Q9EQU3); experiment: Inhibition of ODN 2395 (TLR9 agonist)-induced TNF-α secretion in RAW264.7 cells, ELISA; format: cell-based, murine; details: for inhibition of secretion of TLR9-induced TNF-α: in the presence of ODN 2395, 1, 10 or 50 μM, ELISA (FIG. 7B and 7C)
# T2 construct: host or cells: RAW264.7 murine macrophages
# T2 sequence (Q9EQU3 26-1032): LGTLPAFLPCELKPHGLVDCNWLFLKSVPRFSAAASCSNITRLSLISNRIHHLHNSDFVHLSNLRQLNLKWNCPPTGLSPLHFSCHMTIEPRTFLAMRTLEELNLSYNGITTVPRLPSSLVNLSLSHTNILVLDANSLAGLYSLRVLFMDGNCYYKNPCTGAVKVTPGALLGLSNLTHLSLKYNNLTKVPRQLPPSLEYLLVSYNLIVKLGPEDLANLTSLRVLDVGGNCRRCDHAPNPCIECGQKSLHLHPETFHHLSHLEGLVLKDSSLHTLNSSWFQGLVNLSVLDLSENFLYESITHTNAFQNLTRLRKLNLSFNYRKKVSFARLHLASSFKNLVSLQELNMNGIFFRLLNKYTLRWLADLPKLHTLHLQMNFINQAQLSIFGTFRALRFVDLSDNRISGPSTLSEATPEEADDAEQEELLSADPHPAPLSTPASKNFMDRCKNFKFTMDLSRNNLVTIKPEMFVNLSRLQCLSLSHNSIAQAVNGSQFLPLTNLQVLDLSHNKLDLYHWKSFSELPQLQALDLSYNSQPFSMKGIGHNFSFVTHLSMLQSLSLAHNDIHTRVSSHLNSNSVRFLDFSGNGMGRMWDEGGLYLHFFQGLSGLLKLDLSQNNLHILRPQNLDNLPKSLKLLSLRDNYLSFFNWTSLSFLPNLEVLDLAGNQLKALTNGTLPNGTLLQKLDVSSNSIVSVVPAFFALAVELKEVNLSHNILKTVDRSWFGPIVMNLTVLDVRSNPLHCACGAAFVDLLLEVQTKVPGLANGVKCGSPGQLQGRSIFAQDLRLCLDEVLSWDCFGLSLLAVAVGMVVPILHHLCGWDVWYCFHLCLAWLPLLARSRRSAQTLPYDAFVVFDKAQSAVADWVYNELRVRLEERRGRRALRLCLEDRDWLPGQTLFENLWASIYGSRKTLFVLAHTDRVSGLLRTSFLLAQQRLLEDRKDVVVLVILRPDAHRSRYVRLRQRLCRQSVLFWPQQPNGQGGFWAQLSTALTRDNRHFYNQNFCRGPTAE
# Experimental: as §1, §2, §3, §4
# [1] = Solubility noted during preparation; format: physicochemical; details: remark in the preparation example, no medium stated
# Experimental: 0.5 g (4.2 mmol) of […] was dissolved in 50 ml of MC, and 2.8 g (21 mmol, 5 eq) of AlCl3 was added thereto, followed by stirring at room temperature for 1 hour. A solution of 2.28 g (12.3 mmol) of p-nitrobenzoyl chloride in 10 ml of MC was added dropwise to the reaction solution at room temperature. The mixture was stirred overnight. When the reaction was completed, the reactor containing the concentrated residue was placed in an ice bath, 30 g of ice water was added thereto, and then stirred for 1 hour. Then, the result was filtered and washed with water. The solid was dissolved in 30 mL of MC and 10 mL of MeOH, and washed with 30 mL of Sat'd NaHCO3, and the layers were separated. The MC layer was washed with water, and the organic layer was dried over MgSO4, filtered, and concentrated under reduced pressure. After refluxing in 20 ml of IPA, the result was stirred at room temperature for 1 hour and then filtered. The solid was refluxed in 20 ml of MC, stirred at room temperature for 1 hour, and filtered to prepare 85 mg of (3-nitro-phenyl)-(1H-pyrrolo[2,3-b]pyridin-3-yl)-methanone (yield: 7.5%). However, it was not easy to remove impurities, so the yield was low and solubility was also low.
Structure (SMILES),cytotoxicity (MTT assay) (RAW264.7 cells),inhibition of secretion of TLR7-induced TNF-α (TLR7; RAW264.7 cells),inhibition of secretion of TLR9-induced TNF-α (TLR9; RAW264.7 cells),further results
"CC(C)n1cc(C(=O)c2ccccc2)c2cccnc21 [TAC5-050, (1-Isopropyl-1H-pyrrolo[2,3-b]pyridin-3-yl)-phenyl-methanone]",non-cytotoxic,inhibited the secretion of TLR7- or TLR9-induced TNF-α in a dose-dependent manner,inhibited the secretion of TLR7- or TLR9-induced TNF-α in a dose-dependent manner,IC50 (TLR7): 24 µM; IC50 (TLR9): 53.1 µM
"O=C(c1ccccc1)c1cn(S(=O)(=O)c2ccccc2)c2ncccc12 [TAC5-051, (1-Benzenesulfonyl-1H-pyrrolo[2,3-b]pyridin-3-yl)-phenyl-methanone]",non-cytotoxic,inhibited the secretion of TLR7- or TLR9-induced TNF-α in a dose-dependent manner,inhibited the secretion of TLR7- or TLR9-induced TNF-α in a dose-dependent manner,"IC50 (TLR7; RAW264.7 cells, compound 1 hour, then IMQ (1 μg/ml) 4 hours, mTNF-α ELISA (FIG. 9), read-out: IC50 for TLR7): 10.8 µM; IC50 (TLR9; RAW264.7 cells, compound 1 hour, then ODN 2395 (0.5 μM) 4 hours, mTNF-α ELISA (FIG. 8), read-out: IC50 for TLR9): 13.8 µM"
"O=C(c1cccc([N+](=O)[O-])c1)c1c[nH]c2ncccc12 [TAC5-052, (3-Nitro-phenyl)-(1H-pyrrolo[2,3-b]pyridin-3-yl)-methanone]",cytotoxic,,,solubility [1]: low
"O=C(c1ccc(Cl)c(Cl)c1)c1c[nH]c2ncccc12 [TAC5-053, (3,4-Dichloro-phenyl)-(1H-pyrrolo[2,3-b]pyridin-3-yl)-methanone]",cytotoxic,,,
"O=C(c1ccc(Cl)c(F)c1)c1c[nH]c2ncccc12 [TAC5-054, (4-Chloro-3-fluoro-phenyl)-(1H-pyrrolo[2,3-b]pyridin-3-yl)-methanone]",cytotoxic,,,
"O=C(c1ccccc1)c1c[nH]c2ncc(Cl)cc12 [TAC5-055, (5-Chloro-1H-pyrrolo[2,3-b]pyridin-3-yl)-phenyl-methanone]",cytotoxic,,,

# Reference: patent US12559489B2, “Antagonistic small molecule compound having toll-like receptor 7/9 inhibitory function” (AJOU UNIVERSITY INDUSTRY-ACADEMIC COOPERATION FOUNDATION, priority 2020, dated 2026)
